One block for each compound: values may come before it.
Columns and labels:
H2 -receptor = settings: said in U.S. Pat. No. 4,203,909; cited from earlier work
H2 receptor = settings: prior art; cited from earlier work
H2 -receptors = target: T1, H2 -receptors (Rattus norvegicus, UniProt P25102); assay: H2-receptor blocking activity, histamine relaxation of KCl-contracted isolated rat uterine horns; assay type: cell-based; settings: for Kb: antagonist 10^-5 molar for 30 minutes, rat uterine strips, histamine dose-response shift, read-out: pA2 (-log KB) (converted)
T1 construct: uterine horns removed therefrom and suspended at ambient temperatures in isolated organ baths; from tissue; host or cells: isolated uterine horns of estrone-treated female albino rats
T1 sequence (P25102 whole entry): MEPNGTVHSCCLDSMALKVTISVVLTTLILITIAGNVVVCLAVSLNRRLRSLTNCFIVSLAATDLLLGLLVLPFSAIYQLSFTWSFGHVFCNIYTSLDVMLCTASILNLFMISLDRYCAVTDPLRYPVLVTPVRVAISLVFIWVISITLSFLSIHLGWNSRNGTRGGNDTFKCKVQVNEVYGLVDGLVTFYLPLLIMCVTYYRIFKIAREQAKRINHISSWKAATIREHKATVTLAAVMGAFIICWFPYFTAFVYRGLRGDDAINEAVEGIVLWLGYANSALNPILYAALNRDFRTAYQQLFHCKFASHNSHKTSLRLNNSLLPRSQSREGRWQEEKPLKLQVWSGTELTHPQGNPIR
Method: The following assay for H2 -receptor blocking activity was employed. Female albino rats were treated with estrone 24 hours prior to the initiation of the experiment. The rats were sacrificed and the uterine horns removed therefrom and suspended at ambient temperatures in isolated organ baths containing De Jalon's solution. After equilibration, the uterine strips are exposed to 50 millimole aqueous potassium chloride, which produces a sustained contraction. When the uterus is so contracted, histamine produces a dose-dependent H2 -receptor-mediated relaxation. A control dose-response curve to histamine is constructed on each tissue. Following thorough washout of the histamine after obtaining the control dose-response curve, each antagonist (the compounds of this invention) is added for 30 minutes at a concentration of 10^-5 molar. The uterine strips are then contracted with aqueous potassium chloride in the presence of the antagonist and a second dose-response curve to histamine obtained. In the presence of a competitive antagonist, the dose-response curve to histamine is shifted in parallel to the right with no depression of the maximum relative to the control curve. The dose ratio (DR) is calculated for each concentration of antagonist by dividing the ED50 of histamine in the presence of the competitive antagonist by the control ED50 for histamine. The dissociation constant (KB ) of the antagonist is calculated from the dose-ratios by the following equation: […]
Cimetidine is included as an internal standard.

acid secretion = assay: in vivo antisecretory action on histamine-stimulated acid secretion in gastric fistula dogs
Method: An in vivo assay for antisecretory action of drugs on acid secretion utilizes gastric fistula dogs with vagally innervated gastric fistula and vagally denervated Heidenhain pouch. In this procedure, a steady-state gastric secretion is produced by the iv infusion of histamine. The antisecretory drugs under test are given either intravenously by infusion over a 30 minute period or orally 75 min. prior to collection of gastric secretion from the fistula.

SMILES: C#CCNC(=C[N+](=O)[O-])NCCSCc1ccc(CN(C)C)o1 [1-nitro-2-(2-propynylamino)-2-(2-[(5-dimethylaminomethyl-2-furyl)methylthio]ethylamino)ethylene]
times the activity of cimetidine (H2 -receptor): 7.45 times

SMILES: CNC(=C[N+](=O)[O-])NCCSCc1ccc(CN(C)C)o1 [ranitidine]
H2 receptor antagonist activity compared with cimetidine (H2 receptor): greater H2 receptor antagonist activity than cimetidine

Kb (H2 -receptors): 186 nM | times higher affinity for the H2 -receptors than cimetidine (H2 -receptors; relative to cimetidine internal standard): approximately 3.63 times
SMILES: C#CCNC(=C[N+](=O)[O-])NCCSCc1csc(CN(C)C)n1 [N-(2-propynyl)-N'-2-(2-dimethylaminomethyl-4-thiazolylmethylthio)ethyl 2-nitro-1,1-ethenediamine]
ED50 (acid secretion; Canis lupus familiaris, 0.5 h, iv infusion over 30 minutes, histamine-stimulated gastric secretion): 0.068 µmol/kg | times smaller ED50 (iv) than that found for cimetidine (acid secretion; iv, relative to cimetidine): over 7 times

Kb (H2 -receptors): 1000 nM
SMILES: C#CCNC(=NC#N)NCCSCc1csc(CN(C)C)n1 [N-2-propynyl-N'-2-(2-dimethylaminomethyl-4-thiazolylmethylthio)ethyl-N"-cyanoguanidine]
